The record followed here is ChEMBL document CHEMBL1125972, “Synthesis of chemoreversible prodrugs of ARA-C” (Bioorg Med Chem Lett, 1991).

SMILES strings stand for the structures.

The data set in a line: Half life value was determined. The format is ADME.
Regarding `CC(C)(NC(=O)[C@@H](N)Cc1ccc(OCc2ccccc2)cc1)C(=O)Nc1ccn(C2O[C@H](CO)[C@@H](O)[C@@H]2O)c(=O)n1` (stereo partly specified), the half-life (usually the time in which the quantity being followed falls by half) is 42 h. As for `CC(C)(NC(=O)CO)C(=O)Nc1ccn(C2O[C@H](CO)[C@@H](O)[C@@H]2O)c(=O)n1` (stereo partly specified), the half-life is 360 h. This half-life is about 8.6-fold higher than that of the compound before. As for `CC(=O)[O-].CC(C)(NC(=O)CO)C(=O)Nc1ccn(C2O[C@H](CO)[C@@H](O)[C@@H]2O)c(=O)n1.[Na+]` (stereo partly specified), the half-life is 1.4 h. Regarding `CC(=O)O.CC(C)(NC(=O)[C@@H](N)Cc1ccc(OCc2ccccc2)cc1)C(=O)Nc1ccn(C2O[C@H](CO)[C@@H](O)[C@@H]2O)c(=O)n1` (stereo partly specified), the half-life was 31 h. `CC(=O)O.CC(C)(NC(=O)CO)C(=O)Nc1ccn(C2O[C@H](CO)[C@@H](O)[C@@H]2O)c(=O)n1` (stereo partly specified): the half-life was 860 h. Compound `CC(=O)[O-].CC(C)(NC(=O)[C@@H](N)Cc1ccc(OCc2ccccc2)cc1)C(=O)Nc1ccn(C2O[C@H](CO)[C@@H](O)[C@@H]2O)c(=O)n1.[Na+]` (stereo partly specified) gave a half-life of 0.3 h.
